Laboratory results taken from patent US20260217712A1, “SOLID STATE FORMS OF MNK INHIBITORS” (4E Therapeutics, Inc., priority 2023, published 2026).
Values after ≈ are worked out from the molar mass of the structure shown. “Also recorded” adds a separate entry of the source. Read-outs that look alike come from different tables or passages of the source. Blank lines part the entries; values can stand above or below the compound they belong to.

Assays:
Type in all cases: physicochemical
[1] = Competitive slurries of Pattern 3 and Pattern 11, XRPD; conditions: for XRPD after 7 days / XRPD after 17 days: competitive slurry, solvent and temperature per sample; for XRPD after 7 days: 20 vol
Experimental: A solid mixture of Structure (I) Pattern 3 (from Lot B, 300 mg) and Pattern 11 (Sample 35-1, 300 mg) was mixed for 3 hours using a turbula mixer.
The solid mixture (30 mg) was suspended in solvent (dried with molecular sieves, 600 μL, 20 vol) and either stirred in the fridge, shaken at RT or 55° C. After 7 days, an aliquot of each suspension was analyzed by XRPD. Samples that were still a mixture of forms were placed back into fridge/shakers for a further 10 days and re-analyzed (results shown in Table 36).
Competitive slurry experiments at 55° C., along with one at 5° C., were repeated using a saturated solution as the solvent mixture to minimize dissolution that may have occurred at temperatures other than room temperature.
A saturated solution of THF/Water (9:1) (5 mL) with Structure (I) (from Lot B) was equilibrated at 55° C. overnight in a shaker. The solution was filtered using 0.45 μm nylon filter before use.
A solid mixture of Pattern 3 and Pattern 11 (30 mg) was suspended in the saturated solution (600 μL, 20 vol) and either stirred in the fridge (5° C.) or shaken at 55° C. After 1 day, aliquots of the suspensions were analyzed by XRPD. Both samples were placed back into fridge/shaker. After a total of 11 days, the samples were removed from fridge/shaker. Sample 38-2 was filtered before XRPD, Sample 38-1 was pipetted onto the XRPD holder and allowed to dry before analysis (solid passed through filter).

[2] = Gravimetric solubility measurements from competitive slurry samples; conditions: organic solvent or mixture, thermodynamic from solid, room temperature
Description: In order to determine that Pattern 3 was not simply being dissolved in the solvent systems when the solid was introduced, gravimetric solubility measurements were made using the samples at room temperature. […] There was insufficient solubility at room temperature to dissolve the Pattern 3 present in the competitive slurry experiments.

[3] = Slurry in pH 2.0 buffer, XRPD; conditions: pH 2.0 chloride buffer, RT, 5 days
Experimental: Structure (I) (from Lot B, 30 mg) was suspended in pH 2.0 buffer (chloride buffer, 3 mL) and placed in a shaker at RT. After 1 day, the sample was filtered and analyzed by XRPD. The sample was re-suspended in pH 2.0 buffer (2 mL) and returned to shaking at RT for 4 days. The sample was aliquoted and analyzed by XRPD, before filtration and drying under suction.

[4] = pKa measurements
[5] = Heating for 24 h in a vacuum tray dryer, XRPD and HPLC
Experimental: A polymorphism study of Structure (I) was performed at 75° C., 100° C., 175° C., and 250° C. About 500 mg of Structure (I) Pattern 3 was heated at 75° C. for 24 h in a vacuum tray dryer (VTD) under reduced pressure. Obtained material after heating at 75° C. was analyzed for purity by HPLC and XPRD analysis. […] Additionally, about 500 mg of Structure (I) was heated at 75° C. for 24 h in a VTD under reduced pressure. After 24 h, material was cooled to 25-30° C. under inert atmosphere and analyzed for purity by HPLC and XRPD.
About 500 mg of Structure (I) was heated at 100° C. for 24 h in a VTD under reduced pressure. Obtained material after heating at 100° C. was analyzed for purity by HPLC and XPRD. […] Additionally, about 500 mg of Structure (I) was heated at 100° C. for 24 h in a VTD under reduced pressure. After 24 h material was cooled to 25-30° C. under inert atmosphere. Obtained material was analyzed for purity by HPLC and XPRD.
Obtained material after heating at 175° C. was analyzed for purity by HPLC and XPRD. […] After 24 h, material was cooled to 25-30° C. under inert atmosphere. Obtained material was analyzed for purity by HPLC and XPRD.
About 500 mg of Structure (I) was heated at 250° C. for 24 h in a VTD. Obtained material after heating at 250° C. was analyzed for purity by HPLC and XPRD.

[6] = Drying / standing under ambient conditions, XRPD; conditions: listed as 34-1
[7] = Static storage at 25° C./97% RH, XRPD and HPLC post storage; conditions: 10 days
[8] = Thermodynamic solubility in simulated media and buffers; conditions: for solubility at 24 h: 25 °C, thermodynamic from solid
Experimental: The thermodynamic solubility for Pattern 11 was determined in 3 simulated media and two buffers. […]

[9] = Static storage at 40° C./75% RH, XRPD and HPLC post storage; conditions: 7 days, listed as 34-1
[10] = Drying / standing under ambient conditions, XRPD; conditions: ambient conditions
Experimental: Structure (I) (Sample 28-2, 30 mg, Poorly Crystalline Pattern 3) was wetted with solvent (300 μL, 10 vol) according to Table 30 and put into a shaker at 50° C. for 6 days. The suspensions were isolated using filter cartridges and positive pressure. A XRPD pattern was collected for each sample. […] This characterization is presented and discussed in Examples detailed herein. (see, e.g., FIG. 75)

[11] = Static storage at 40° C./75% RH, XRPD and HPLC post storage
Experimental: Purity analysis was performed on an Agilent HP1100/Infinity II 1260 series system equipped with a diode array detector and using OpenLAB software. The full method details are provided below:
Poorly Crystalline Structure (I) (from Lot A, Free Form Pattern 1, 30 mg) was dissolved in 50 volumes of THF:Water 9:1 at 60° C. in 13 vials, stirring at 500 RPM (small amount of debris present). The solutions were then treated with 1.1 molar equivalents (90/180 μL) of selected counter-ions (Table 7). The resulting solutions were then cooled down to 5° C. at 0.1° C./min and were held at this temperature for 2 days. The suspensions were filtered and dried under suction for 20 min. The gummed sample was left with the cap off to promote crystallization. All solids obtained were initially analyzed by XRPD and stored in glass HPLC vials for subsequent analysis.
Any solids obtained were analyzed by XRPD, ^1H NMR, HPLC, TGA, DSC, XRPD post storage at 40° C./75% RH after 7 days & IC if necessary. Additional microscopy techniques (PLM & HSM) were used to complement the above analysis where appropriate.

[12] = Gravimetric vapor sorption (GVS) and XRPD post-GVS; conditions: for GVS reversible water uptake 0-90% RH: 25° C.; for Post GVS XRPD form: after double cycle GVS
Experimental: Sorption isotherms were obtained using a SMS DVS Intrinsic moisture sorption analyzer, controlled by DVS Intrinsic Control software. The sample temperature was maintained at 25° C. by the instrument controls. The humidity was controlled by mixing streams of dry and wet nitrogen, with a total flow rate of 200 mL/min. The relative humidity was measured by a calibrated Rotronic probe (dynamic range of 1.0-100% RH), located near the sample. The weight change, (mass relaxation) of the sample as a function of % RH was constantly monitored by a microbalance (accuracy±0.005 mg).
(§1) Typically, 5-30 mg of sample was placed in a tared mesh stainless steel basket under ambient conditions. The sample was loaded and unloaded at 40% RH and 25° C. (typical room conditions). A moisture sorption isotherm was performed as outlined below (2 scans per complete cycle). The standard isotherm was performed at 25° C. at 10% RH intervals over a 0-90% RH range. Typically, a double cycle (4 scans) was carried out. Data analysis was carried out within Microsoft Excel using the DVS Analysis Suite.
Sorption isotherms were obtained using a Hiden IGASorp moisture sorption analyser, controlled by Isochema HISorp software. The sample temperature was maintained at 25° C. by a Grant LT ecocool 150 re-circulating water bath. The humidity was controlled by mixing streams of dry and wet nitrogen, with a total flow rate of 250 ml·min-1. The relative humidity was measured by a calibrated Vaisala RH probe (dynamic range of 0-95% RH), located near the sample. The weight change, (mass relaxation) of the sample as a function of % RH was constantly monitored by the microbalance (accuracy±0.001 mg).
as §1, with “Typically, 20-30” for “Typically, 5-30”, “scans giving 1” for “scans per”, “within the Isochema HISorp 2019 software and exported into” for “within”, “Excel to present accordingly.” for “Excel using the DVS Analysis Suite.”

SMILES: Cc1cc(Nc2cc(N)ncn2)c(=O)n2c1C(=O)NC21CCC2(CC2)CC1 [Structure (I), 6″-((6-aminopyrimidin-4-yl)amino)-8″-methyl-2″H-dispiro[cyclopropane-1, l′-cyclohexane-4′,3″-imidazo[1,5-a]pyridine]-1″,5″-dione]
XRPD form after slurry in pH 2.0 buffer [3]: Pattern 1
pKa ([4]; read-out: acidic pKa (acidic center)): 11.5
pKa ([4]; read-out: basic pKa): 4.73
HPLC purity change after heating at 100° C. ([5]; 100° C., reduced pressure): no change
XRPD form after heating at 100° C. ([5]; 100° C., reduced pressure): remained as Pattern 3
HPLC purity change after heating at 175° C. ([5]; 175° C., reduced pressure): no change
XRPD form after heating at 175° C. ([5]; 175° C., reduced pressure): converted to Pattern 11
XRPD form after heating at 250° C. ([5]; 250° C.): converted to Pattern 11

SMILES: Cc1cc(Nc2cc(N)ncn2)c(=O)n2c1C(=O)NC21CCC2(CC2)CC1 [Pattern 11]
form under ambient conditions (XRPD after ambient overnight) [6]: Pattern 11
Static storage 25° C./97% RH, form [7]: 10 days: No change in form-Pattern 11
Static storage 25° C./97% RH, purity [7]: Purity: 98.1%
Solubility FaSSGF ([8]; FaSSGF, 25° C./24 h, listed as 35-1): FaSSGF-0.078 mg/mL
solubility at 24 h ([8]; FaSSIF, fassif, FaSSIF, 25° C./24 h, read-out: Solubility FaSSIF): 1.4 µg/mL (≈ 0.00382 mM)
solubility at 24 h ([8]; FeSSIF, fessif, FeSSIF, 25° C./24 h, read-out: Solubility FeSSIF): 4 µg/mL (≈ 0.0109 mM)
Solubility pH 2.0 ([8]; pH 2.0 buffer, 25° C./24 h, listed as 35-1): pH 2.0-0.052 mg/mL
solubility at 24 h ([8]; pH 7.4 buffer, pH 7.4, aqueous buffer, pH 7.4 buffer, 25° C./24 h, read-out: Solubility pH 7.4): 1 µg/mL (≈ 0.00273 mM)
solubility in simulated fluids and buffers (in words) ([8]; simulated media and buffers): practically insoluble
XRPD post storage at 40° C./75% RH [9]: 7 days: Pattern 11 + extra peaks (not
form conversion in competitive slurries (in words) [1]: no conversion of Pattern 11 to Pattern 3
form under ambient conditions (XRPD after ambient overnight) [10]: stable at ambient conditions; also recorded: stable at room temperature
stability to storage at 40° C./75% RH (in words) ([11]; 40° C./75% RH (elevated temperature and humidity)): reasonable stability; also recorded: good stability
XRPD form after storage at 40° C./75% RH, 3 days ([11]; 40° C./75% RH, 3 days): 3 days: No change in form-Pattern 11
Static storage 40° C./75% RH, form ([11]; 40° C./75% RH, 10 days): form and purity was found to stable
Static storage 40° C./75% RH, purity ([11]; 40° C./75% RH, 10 days): Purity: 98.0%
Static storage 40° C./75% RH, form ([11]; 40° C./75% RH, 10 days, listed as 35-1): 10 days: No change in form-Pattern 11
hygroscopicity (in words) [12]: only slightly hygroscopic
GVS reversible water uptake 0-90% RH [12]: 0.3 wt %
GVS reversible water uptake 0-90% RH ([12]; listed as 35-1): 0.3 wt % reversible water uptake 0-90% RH with a
Post GVS XRPD form [12]: remained Pattern 11
Post GVS XRPD form ([12]; listed as 35-1): Post GVS XRPD: Pattern 11 + peak at 7.7°
hygroscopicity (in words) ([12]; listed as Structure (I) Pattern 11): only slightly hygroscopic

Now from value to compound:

XRPD after 7 days [1]: Patterns 3 and 11
XRPD after 17 days [1]: Patterns 3 and 11
solubility ([2]; IPA/Water (95:5)): 3800 µg/mL (≈ 10.4 mM)
SMILES: Cc1cc(Nc2cc(N)ncn2)c(=O)n2c1C(=O)NC21CCC2(CC2)CC1 [Pattern 36-9]

XRPD after 7 days [1]: Patterns 3 and 11
XRPD after 17 days [1]: Patterns 3 and 11
solubility ([2]; THF/Water (9:1)): 8100 µg/mL (≈ 22.1 mM)
SMILES: Cc1cc(Nc2cc(N)ncn2)c(=O)n2c1C(=O)NC21CCC2(CC2)CC1 [Pattern 36-10]

XRPD after 7 days [1]: Patterns 3 and 11
XRPD after 17 days [1]: Patterns 3 and 11
solubility ([2]; Toluene): 2300 µg/mL (≈ 6.28 mM)
SMILES: Cc1cc(Nc2cc(N)ncn2)c(=O)n2c1C(=O)NC21CCC2(CC2)CC1 [Pattern 36-8]
